Where two headings read alike, the source gives them in different places.
What was measured:
[1] = test system: electrically stimulated guinea pig ileal longitudinal muscle strip; test: Guinea pig ileum: morphine IC50 ratio before and after exposure to the test compound (Examples V-XIV); type: cell-based; conditions: 30 min exposure, 20 washes
Description: Details of the assay are found in Rang, Br. J. PHarmacol., 22, 356 (1964).
of the electrically stimulated guinea pig ileal longitudinal muscle strip
(treated) exposure (30 min) of the ileal preparation to the test compound
(2 × 10^-8 M) followed by 20 washes are expressed as a ratio, […]

[2] = background statement; cited from earlier work
[3] = test system: electrically stimulated guinea pig ileal longitudinal muscle; test: cells; type: cell-based; conditions: for IC50 Ratio FNA/Control: agonist IC50 after FNA (2 × 10^-8, 30 min, 20 washes) / control
effects of morphine [4] = test: Duration of inhibitory effect on morphine (species not given); type: in vivo
Text: (§1) The vertical bars represent 95% confidence intervals of the ED50 values.

[5] = test system: β-endorphin-induced stimulation of food intake; conditions: prior report; cited from earlier work
morphine analgesia = test: Duration of inhibitory effect on morphine analgesia, mouse; type: in vivo; conditions: HCl salt; 4.8 nmol/mouse intracebroventricular
Description: At 4.8 nmol/mouse (intracebroventricular) or at 5 mg/kg i.p. in the rat, the antagonist effects of FNA (as its HCl salt) lasted at least three days (FIG. 1). The vertical bars represent 95% confidence intervals of the ED50 values.

effects of morphine [6] = test: Duration of inhibitory effect on morphine, rat; type: in vivo; conditions: HCl salt; 5 mg/kg i.p. in the rat
Text: as §1

[7] = test system: analgesic response of mice; test: Analgesic response of mice to FNA; type: in vivo, mouse
Description: FIG. 2 is a graphic representation of the analgesic response of mice to FNA.
The analgesic response of mice to FNA was tested.

[8] = Toxic effects at a single dose; type: in vivo; conditions: single dose which completely blocks morphine for at least three days

In the case of CCCOC(=O)/C=C/C(=O)N[C@@H]1CC[C@@]2(O)[C@H]3Cc4ccc(O)c5c4[C@@]2(CCN3CC2CC2)[C@H]1O5 [VI], the “IC50 Ratio, morphine IC50 (treated)/morphine IC50 (control)” value (from here on “IC50 Ratio, morphine IC50”) ([1]; test compound 2 × 10^-8 M) is reported as 4.4.

With CCOC(=O)/C=C/C(=O)N[C@@H]1CC[C@@]2(O)[C@H]3Cc4ccc(O)c5c4[C@@]2(CCN3CC2CC2)[C@H]1O5 [V] the “IC50 Ratio, morphine IC50” value ([1]; test compound 2 × 10^-8 M) was 2.8.

In the case of O=C(/C=C/C(=O)OCCc1ccccc1)N[C@@H]1CC[C@@]2(O)[C@H]3Cc4ccc(O)c5c4[C@@]2(CCN3CC2CC2)[C@H]1O5 [VIII], the “IC50 Ratio, morphine IC50” value ([1]; test compound 2 × 10^-8 M) is reported as 12.8.

In the case of CC(C)C[C@H](NC(=O)[C@H](Cc1ccccc1)NC(=O)CNC(=O)CNC(=O)[C@@H](N)Cc1ccc(O)cc1)C(=O)O [enkephalin], the hypotensive action [2] is listed as “potent hypotensive agents”.

For CSCC[C@H](NC(=O)[C@H](Cc1ccccc1)NC(=O)CNC(=O)[C@@H](C)NC(=O)[C@@H](N)Cc1ccc(O)cc1)C(N)=O [D-Ala^2 -- Met-- enkephlin- Amide], the IC50 ([3]; after FNA (2 × 10^-8) incubated 30 minutes, washed 20 times, read-out: IC50 After FNA) was 29.1 nM, the “IC50 Ratio FNA/Control” value [3] was 6.9 and the IC50 ([3]; control, before FNA, guinea pig ileum, read-out: IC50 Control) was 4.2 nM.

For C=CCN1CC[C@]23c4c5ccc(O)c4O[C@H]2C(=O)CC[C@@]3(O)[C@H]1C5 [naloxone, reference compound], the antagonistic effect (effects of morphine [4]; tested 2 hours after administration) is listed as “its effect had already dissipated” and the “block of β-endorphin-induced stimulation of food intake” value [5] is listed as “blocked”.

With C=CC(=O)N[C@@H]1CC[C@@]2(O)[C@H]3Cc4ccc(O)c5c4[C@@]2(CCN3CC2CC2)[C@H]1O5 [X] the “IC50 Ratio, morphine IC50” value ([1]; test compound 2 × 10^-8 M) was 1.9.

In the case of O=C(/C=C/C(=O)OCc1ccccc1)N[C@@H]1CC[C@@]2(O)[C@H]3Cc4ccc(O)c5c4[C@@]2(CCN3CC2CC2)[C@H]1O5 [VII], the “IC50 Ratio, morphine IC50” value ([1]; test compound 2 × 10^-8 M) is reported as 3.4.

With C=C(Cl)C(=O)N[C@@H]1CC[C@@]2(O)[C@H]3Cc4ccc(O)c5c4[C@@]2(CCN3CC2CC2)[C@H]1O5 [XI] the “IC50 Ratio, morphine IC50” value ([1]; test compound 2 × 10^-8 M) was 8.2.

For CC(=O)/C=C/C(=O)N[C@@H]1CC[C@@]2(O)[C@H]3Cc4ccc(O)c5c4[C@@]2(CCN3CC2CC2)[C@H]1O5 [IX], the “IC50 Ratio, morphine IC50” value ([1]; test compound 2 × 10^-8 M) was 6.4.

In the case of C=CCN1CC[C@]23c4c5ccc(O)c4O[C@H]2[C@H](NC(=O)/C=C/C(=O)OC)CC[C@@]3(O)[C@H]1C5 [XIV], the “IC50 Ratio, morphine IC50” value ([1]; test compound 10^-7 M) is reported as 6.4.

In the case of O=C(CI)N[C@@H]1CC[C@@]2(O)[C@H]3Cc4ccc(O)c5c4[C@@]2(CCN3CC2CC2)[C@H]1O5 [XII], the “IC50 Ratio, morphine IC50” value ([1]; test compound 10^-6 M) is reported as 25.6.

In the case of COC(=O)/C=C/C(=O)N[C@@H]1CC[C@@]2(O)[C@H]3Cc4ccc(O)c5c4[C@@]2(CCN3CC2CC2)[C@H]1O5 [FNA, fumarnaltrexamine], the “inhibition of agonist effects of nalorphine or pentazocine” value ([3]; FNA 2×10^-8 M, 30 minutes) is reported as “did not inhibit the agonist effects of nalorphine or pentazocine”, the “inhibition of response to morphine and enkephalin” value ([3]; FNA 2×10^-8 M, 30 minutes) is reported as “inhibited irreversibly” and the “block of agonist effects of morphine, enkephalin, pentazocine and nalorphine (selectivity)” value ([3]; electrically stimulated guinea pig ileum, summary statement in description) is reported as “irreversibly block the agonist effects of morphine or enkephalin but not the agonist effects of pentazocine or nalorphine”. For the same compound, the “duration of antagonist effects” value (morphine analgesia) was “at least three”, the “duration of antagonist effects” value (effects of morphine [6]) was “at least three” and the “duration of complete block of the effects of morphine” value (effects of morphine [4]; single dose) was “at least three”. The analgesia [7] was “reversible analgesia”, the “reversal of analgesia by its own antagonistic properties” value [7] was “not reversed by its own antagonistic properties” and the toxic effects [8] was “no toxic effects”.

For Oc1ccc2c3c1O[C@H]1[C@H](N=C=S)CC[C@@]4(O)[C@@H](C2)N(CC2CC2)CC[C@]314 [XIII], the “IC50 Ratio, morphine IC50” value ([1]; test compound 2 × 10^-8 M) was 2.3.

For C=CCN1CC[C@]23c4c5ccc(O)c4O[C@H]2[C@@H](O)C=C[C@H]3[C@H]1C5 [Nalorphine], the IC50 ([3]; Cavia porcellus, 0.5 h, after FNA (2 × 10^-8) incubated 30 minutes, washed 20 times, read-out: IC50 After FNA) was 25.2 nM, the IC50 ([3]; Cavia porcellus, control, before FNA, guinea pig ileum, read-out: IC50 Control) was 28.1 nM and the “IC50 Ratio FNA/Control” value [3] was 0.9.

From patent US4362870A, “Selective opioid receptor alkylating agents” (priority 1981, dated 1982)
